We go through one compound from patent US20110172232A1, “AMINOACYL PRODRUGS AS AN ACTIVE PHARMACEUTICAL INGREDIENT FOR THROMBOEMBOLIC DISORDERS” (Bayers Schering Pharma Aktiengesellschaft, priority 2007, published 2011).

A short description of series [1]: In vitro stability in human plasma (HPLC detection). The class given is in vitro ADME. The conditions noted are these: 37° C., read-out: half-life of degradation with release of the active ingredient compound (A). The method, then: (§1) c) In Vitro Stability in Rat Plasma and Human Plasma (HPLC Detection):
(§2) 0.5 mg of substance is dissolved in 1 ml of dimethyl sulfoxide/water 1:1. 500 μl of this sample solution are mixed with 500 μl of rat plasma at 37° C. and shaken. A first sample (10 μl) is immediately taken for HPLC analysis. In the period up to 2 h after the start of incubation, further aliquots are taken after 2, 5, 10, 30, 60 and 90 min, and the contents of the respective test substance and of the active ingredient compound (A) liberated therefrom are determined.
(§3) Agilent 1100 with DAD (G1314A), binary pump (G1312A), autosampler (G1329A), column oven (G1316A), thermostat (G1330A); column: Kromasil 100 C18, 250 mm×4.6 mm, 5 μm; column temperature: 30° C.; mobile phase A: water+5 ml of perchloric acid/liter, mobile phase B: acetonitrile.

The nature of series [2]: In vitro stability in rat plasma (HPLC detection). The series is classed as in vitro ADME. The conditions noted are these: 37° C., read-out: half-life of degradation with release of the active ingredient compound (A). As to the method:
as §1, §2, §3

Series [3] is described as follows: Stability in buffer at various pH values (HPLC). The class given is physicochemical. The conditions noted are these: buffer pH 4, 37° C., acetonitrile/buffer. As to the method: 0.25 mg of the test substance is weighed into a 2 ml HPLC vial and 0.5 ml of acetonitrile is added. The substance is dissolved by putting the sample vessel in an ultrasonic bath for about 10 seconds. Then 0.5 ml of the respective buffer solution is added, and the sample is again treated in the ultrasonic bath.
pH 4.0:1 liter of Millipore water is adjusted to pH 4.0 with 1 N hydrochloric acid;
pH 7.4: 90 g of sodium chloride, 13.61 g of potassium dihydrogen phosphate and 83.35 g of 1 M sodium hydroxide solution are made up to 1 liter with Millipore water and then diluted 1:10.
10 μl portions of the test solution are analyzed by HPLC for their content of unchanged test substance every hour over a period of 24 hours at 37° C. The percentage areas of the appropriate peaks are used for quantification.
Agilent 1100 with DAD (G1314A), binary pump (G1312A), autosampler (G1329A), column oven (G1316A), thermostat (G1330A); column: Kromasil 100 C18, 125 mm×4 mm, 5 μm; column temperature: 30° C.; mobile phase A: water+5 ml of perchloric acid/liter, mobile phase B: acetonitrile.

Take `CCCCNCCCC(=O)N(C[C@H]1CN(c2ccc(N3CCOCC3=O)cc2F)C(=O)O1)C(=O)c1ccc(Cl)s1` [Example 22, N-[4-(Butylamino)butanoyl]-5-chloro-N-({(5S)-2-oxo-3-[2-fluoro-4-(3-oxomorpholin-4-yl)phenyl]-1,3-oxazolidin-5-yl}methyl)thiophene-2-carboxamide]: the half-life at 0.25 mg/mL in series [1] and in series [2] was less than 2 min throughout. Also, the “time stable in solution at pH 4” value in series [3] was “more than 16 h”.

One may read the half-life as the time needed for the level to fall by half in the phase considered.
